≈ marks a conversion by molar mass, not a printed value. Read-outs that look alike come from different tables or passages of the source. Marks after values point to notes of the source that are not given here.

The values that follow come from patent publication EP4635500A1, “THERAPEUTIC AGENT FOR BACTERIAL INFECTION” (Sumitomo Pharma Co., Ltd., priority 2022, dated 2024).

The target of one assay is OXA-72 (Acinetobacter baumannii, UniProt Q5XQU0). The assay can be described thus: Ki,app against β-lactamase (Example 1, Table 1). The format is biochemical. The note with it: OXA-72, class D; 30 min preincubation; n.d.: too low inhibitor activity at 100 µmol/L; *: value from one of three experiments. The protocol: (§1) After stirring, the resultants were preincubated for 30 minutes at 37°C. The reporter substrate solution was incubated at 37°C for 15 minutes or more, dispensed at 100 µL/well, and measured for a change in absorbance by a microplate reader at 37°C. For each measured concentration of the positive control and the inhibitor, an initial rate (µmol/L/sec) was determined from a time to be analyzed and a change in product amount. […] Ki,app for each inhibitor concentration was calculated from the slope, the inhibitor concentration, an enzyme concentration, Km, and kcat using Expression 2. If the initial rate was determined at two or more concentrations for each inhibitor and a plurality of Ki,app could be obtained, an average value was used as the Ki,app for the inhibitor. t−tc = Km /Vmax x ([Inhibitor]/Ki,app)x Ln[S]0 /[S] [formula] Ki,app = [Inhibitor]x Km /(kcatx[Enzyme])x 1/slope [formula]
(§2) The experiment was performed in duplicate.

The target in a further assay is OXA-65 (Acinetobacter baumannii, UniProt Q58XD3). The assay can be described thus: Ki,app against β-lactamase (Example 1, Table 1). The format is biochemical. The note with it: OXA-65, class D; 30 min preincubation; n.d.: too low inhibitor activity at 100 µmol/L. The protocol:
as §1, §2

The next assay concerns the target OXA-66 (Acinetobacter baumannii, UniProt Q58XD2). The assay can be described thus: Ki,app against β-lactamase (Example 1, Table 1). Conditions: OXA-66, class D; 30 min preincubation; n.d.: too low inhibitor activity at 100 µmol/L. The format is biochemical. The protocol:
as §1, §2

A further assay concerns the target KPC-38 (Klebsiella pneumoniae, UniProt Q9F663). The format is biochemical. The note with it: read-out: Ki app; KPC-38, class A; 30 min preincubation; n.d.: too low inhibitor activity at 100 µmol/L. The protocol:
as §1, §2

The next assay has as its target KPC-3 (Klebsiella pneumoniae, UniProt Q9F663, H272Y). Nature of the assay: biochemical. Format: biochemical. The protocol:
as §1, §2

Another assay addresses OXA-23 (Acinetobacter baumannii, UniProt Q9L4P2). The assay can be described thus: Ki,app against β-lactamase (Example 1, Table 1). Format: biochemical. The protocol:
as §1, §2

Another assay deals with KPC-2 (Klebsiella pneumoniae, UniProt Q9F663). Nature of the assay: Ki,app against β-lactamase (Example 1, Table 1). Format: biochemical. The protocol:
as §1, §2

For a further assay, the target named is OXA-48 (Klebsiella pneumoniae, UniProt Q6XEC0). Nature of the assay: Ki,app against β-lactamase (Example 1, Table 1). Format: biochemical. The protocol:
as §1, §2

Assay [1] concerns anaerobic bacteria. The assay can be described thus: microbe, parasite or virus in culture. Format: cell-based.
Assay [2] has as its system anaerobic bacteria. Conditions: cited from earlier work.
The target of a further assay is OXA-24 (Acinetobacter baumannii, UniProt Q8RLA6). The assay can be described thus: Ki,app against β-lactamase (Example 1, Table 1). Format: biochemical. Conditions: OXA-24, class D; 30 min preincubation; n.d.: too low inhibitor activity at 100 µmol/L. The protocol: as §1, §2
Another assay has as its target KPC-8 (Klebsiella pneumoniae, UniProt Q9F663, H272Y/V239G). The assay can be described thus: biochemical. The protocol:
as §1, §2

The target of a further assay is KPC-6 (Klebsiella pneumoniae, UniProt Q9F663, V239G). The assay can be described thus: biochemical. The protocol:
as §1, §2

The next assay concerns the target PDC-11 (Pseudomonas aeruginosa, UniProt P24735, form not given, species not given). Format: biochemical. The note with it: PDC-11, class C; 30 min preincubation; n.d.: too low inhibitor activity at 100 µmol/L; read-out: Ki app. The protocol: as §1, §2
The next assay has as its target CTX-M-27 (Escherichia coli, UniProt Q840M4). The assay can be described thus: Ki,app against β-lactamase (Example 1, Table 1). Format: biochemical. Conditions: CTX-M-27, class A; 30 min preincubation; n.d.: too low inhibitor activity at 100 µmol/L. The protocol:
as §1, §2

The target in the next assay is CTX-M-14 (Escherichia coli, UniProt Q9L5C7). Nature of the assay: Ki,app against β-lactamase (Example 1, Table 1). The note with it: CTX-M-14, class A; 30 min preincubation; n.d.: too low inhibitor activity at 100 µmol/L. Format: biochemical. The protocol:
as §1, §2

The target in another assay is SHV-12 (Klebsiella pneumoniae, UniProt P0A3M1, L31Q). Nature of the assay: Ki,app against β-lactamase (Example 1, Table 1). Format: biochemical. The note with it: SHV-12, class A; 30 min preincubation; n.d.: too low inhibitor activity at 100 µmol/L. The protocol: as §1, §2
A further assay addresses KPC-31 (Klebsiella pneumoniae, UniProt Q9F663, D178Y/H272Y). Nature of the assay: biochemical. The protocol: as §1, §2
The target in the next assay is KPC-33 (Klebsiella pneumoniae, UniProt Q9F663, D178Y). Nature of the assay: biochemical. The protocol:
as §1, §2

[3] abbreviates: KPC-3, class A, 30 min preincubation, n.d.: too low inhibitor activity at 100 µmol/L, read-out: Ki app.
Where [4] appears, read: KPC-2, class A, 30 min preincubation, n.d.: too low inhibitor activity at 100 µmol/L, read-out: Ki app.

In the case of `NC(=O)[C@@H]1CC[C@@H]2CN1C(=O)N2OS(=O)(=O)O` [Avibactam, avibactam], the Ki on OXA-72 is 691 ± 63.8 nM; on OXA-65, 5900 ± 1050 nM; at OXA-66 it was 7350 ± 963 nM.
As for `O=C(O)[C@H]1/C(=C/CO)O[C@@H]2CC(=O)N21` [Clavulanate, clavulanate], the Ki at KPC-38 worked out at 78.2 ± 20.5 nM; at KPC-3, 128 ± 53.2 nM; on OXA-23, 394 ± 169 nM; at KPC-2 it was 76.7 ± 38.3 nM; at OXA-48 (OXA-48, class D, 30 min preincubation, n.d.: too low inhibitor activity at 100 µmol/L, read-out: Ki app), 103 ± 36.5 nM.
With `Cc1ncc([N+](=O)[O-])n1CCO` [MNZ], the MIC in the assay with anaerobic bacteria [1] (ATCC29328, Finegoldia magna ATCC 29328, read-out: MIC) is 2 µg/mL (≈ 11.7 µM); with anaerobic bacteria [1] (ATCC43055, Eggerthella lenta ATCC 43055, read-out: MIC), 1 µg/mL (≈ 5.84 µM); with anaerobic bacteria [1] (ATCC43255, Clostridioides difficile ATCC 43255, read-out: MIC), 1 µg/mL (≈ 5.84 µM); in the assay on anaerobic bacteria [1] (ATCCBAA1803, Clostridioides difficile ATCC BAA-1803, read-out: MIC), 2 µg/mL (≈ 11.7 µM); in the assay on anaerobic bacteria [1] (ATCCBAA1870, Clostridioides difficile ATCC BAA-1870, read-out: MIC) it was 1 µg/mL (≈ 5.84 µM); in the assay with anaerobic bacteria [1] (Bacteroides fragilis, ATCC25285), 1 µg/mL (≈ 5.84 µM). Besides, the MIC in the assay on anaerobic bacteria [1] (Bacteroides ovatus) was 1 µg/mL (≈ 5.84 µM); in the assay on anaerobic bacteria [1] (Bacteroides thetaiotaomicron KUB2984, read-out: MIC), 1 µg/mL (≈ 5.84 µM); in the assay on anaerobic bacteria [1] (Bacteroides thetaiotaomicron, ATCC29741), 2 µg/mL (≈ 11.7 µM); in the assay on anaerobic bacteria [1] (Clostridium perfringens, ATCC13124), 2 µg/mL (≈ 11.7 µM); against anaerobic bacteria [1] (Cutibacterium acnes, ATCC11827), over 64 µg/mL; against anaerobic bacteria [1] (Fusobacterium nucleatum, ATCC25586) it was at most 0.125 µg/mL. The MIC was determined as 0.5 µg/mL (≈ 2.92 µM) in the assay on anaerobic bacteria [1] (Fusobacterium varium, ATCC27725); 1 µg/mL (≈ 5.84 µM) in the assay with anaerobic bacteria [1] (Lancefieldella rimae); 4 µg/mL (≈ 23.4 µM) against anaerobic bacteria [1] (Olsenella uli); 0.5 µg/mL (≈ 2.92 µM) with anaerobic bacteria [1] (Parvimonas micra KUB3000, read-out: MIC); 1 µg/mL (≈ 5.84 µM) in the assay with anaerobic bacteria [1] (Peptoniphilus asaccharolyticus, ATCC14963); 0.5 µg/mL (≈ 2.92 µM) with anaerobic bacteria [1] (Peptostreptococcus anaerobius, ATCC27337). The MIC with anaerobic bacteria [1] (Prevotella histicola) is 2 µg/mL (≈ 11.7 µM); in the assay with anaerobic bacteria [1] (Prevotella intermedia), 1 µg/mL (≈ 5.84 µM); against anaerobic bacteria [1] (Prevotella melaninogenica) it was 1 µg/mL (≈ 5.84 µM); in the assay on anaerobic bacteria [1] (Schaalia odontolytica, ATCC17929) it was over 64 µg/mL; in the assay with anaerobic bacteria [1] (Segatella buccae) it was 2 µg/mL (≈ 11.7 µM). The “Acceptable MIC range of quality control (QC) strain” value with anaerobic bacteria [2] (Bacteroides fragilis ATCC 25285 (QC strain)) is recorded as 1 (0.25 to 1)* µg/mL; with anaerobic bacteria [2] (Bacteroides thetaiotaomicron ATCC 29741 (QC strain)), 2 (0.5 to 2)* µg/mL.
For the molecule `O=C(NC1CCNCC1)[C@@H]1CC[C@@H]2CN1C(=O)N2OS(=O)(=O)O` [Relebactam, relebactam], the Ki on OXA-23 (OXA-23, class D, 30 min preincubation, n.d.: too low inhibitor activity at 100 µmol/L, read-out: Ki app) is 5640 ± 522 nM.
As for `CC1(C)[C@H](C(=O)O)N2C(=O)C[C@H]2S1(=O)=O` [Sulbactam, sulbactam], the Ki at KPC-38 stood at 405 ± 99.6 nM; on KPC-3, 674 ± 239 nM; on OXA-23 it was 681 ± 74.3 nM; at KPC-2, 420 ± 99.2 nM; at OXA-48, 264 ± 116 nM.
`C[C@]1(Cn2ccnn2)[C@H](C(=O)O)N2C(=O)C[C@H]2S1(=O)=O` [Tazobactam, tazobactam]: the Ki at KPC-38 was 112 ± 14.5 nM; on KPC-3 (setting [3]) it was 270 ± 80.8 nM; on OXA-24, 100 ± 45.6 nM; at KPC-2 (setting [4]), 159 nM; at KPC-8 it was 52 ± 11.8 nM; at KPC-6, 79.9 ± 16.5 nM.
`O=C(O)C[C@@H]1CC[C@H](NC(=O)Cc2cccs2)B(O)O1` [Vaborbactam, vaborbactam]: the Ki on PDC-11 came out at 3860 ± 163 nM; on KPC-38, 48.3 nM; on KPC-3 (setting [3]), 88.3 ± 30.3 nM; on CTX-M-27, 351 ± 28.7 nM; at CTX-M-14 it was 392 ± 20.3 nM; at SHV-12, 755 ± 103 nM. For the same molecule, the Ki worked out at 63.7 nM on KPC-2 (setting [4]); 13300 ± 8590 nM at KPC-31; 4600 ± 437 nM at KPC-33; 114 ± 22.1 nM at KPC-8; 109 ± 21.7 nM at KPC-6.
